# Values of other authors in patent US20180272346A1, “MODULAR ORGAN MICROPHYSIOLOGICAL SYSTEM WITH MICROBIOME” (Massachusetts Institute of Technology, priority 2017, published 2018).
# Experiments:
# [1] = system: immune-competent liver MPS (hepatocytes and Kupffer cells)
# [2] = oral, in vivo; read-out: maximum measured plasma concentration, Cmax
# [3] = system: 7-way MPS platform (gut, liver and other MPSs)
# [4] = system: human hepatocytes and kupffer cells co-culture
# [5] = system: immune-competent gut MPS (Caco2, HT29-MTX, dendritic cells)
# [6] = system: immune-competent gut-liver interacted MPS; conditions: tolcapone added to gut MPS ("oral")
compound,measurement,setting,value
"O=C(O)Cc1ccccc1Nc1c(Cl)cccc1Cl [Diclofenac, diclofenac]",cell death,[1],minimal
same,function and cellular death,endometrium MPS,loss of function correlating with cellular death
same,Cmax,[2],2 to 6 µM
same,absorption and distribution across MPS compartments,[3],absorbed across the gut epithelial barrier
same,unbound intrinsic clearance (CL_int(u)),"[3]; diclofenac added to apical side of gut MPS, estimated",13.90 µL/min
same,fraction of clearance towards formation of the 4-OH-DCF metabolite,[3]; estimated,approximately 19%
"C[C@]12CCC(=O)C=C1CC[C@@H]1[C@@H]2[C@@H](O)C[C@@]2(C)[C@H]1CC[C@]2(O)C(=O)CO [Hydrocortisone (cortisol), Hydrocortisone]",differentiated function,[4]; cocultured liver MPS,enhanced
same,inflammatory response,[4]; cocultured liver MPS,suppressed
same,CYP450 activity,[4]; cultures up to 21 days,sensitive to hydrocortisone levels
Cc1ccc(C(=O)c2cc(O)c(O)c([N+](=O)[O-])c2)cc1 [Tolcapone],cell death,[1],caused cell death
same,mitochondrial activity,[1],decreased
same,cell death,[5],severe cellular death
same,epithelial function,[5],complete loss of epithelial function
same,function and cellular death,endometrium MPS,loss of function correlating with cellular death
same,MPS-specific cell death markers,[6],suffered from MPS-specific cell death markers
same,generic cell death marker,[6],insensitive
same,gut and liver MPS function,[6],MPS-specific loss of function
Lipopolysaccharide [Lipopolysaccharide (LPS)],lowest LPS stimulus the co-cultures were responsive to,[4]; hepatocyte-Kupffer co-culture,0.01 µg/mL
